# Laboratory results taken from US20120115893A1, “Substituted Bicyclic Carboxamide and Urea Compounds as Vanilloid Receptor Ligands” (Gruenenthal GmbH, priority 2010, published 2012).
# Assays:
# [1] = target: T1, vanilloid receptor 1 (VR1/TRPV1 receptor) (Homo sapiens, UniProt Q8NER1); assay: FLIPR Ca2+ influx assay, capsaicin stimulus, CHO K1 cells transfected with human VR1 gene; format: cell-based, human being; details: for inhibition at 5 µM: CHO-K1, @ 5 μM, read-out: inhibition (as a percentage), (f) Ki (human being) Cap column; for (f) Ki (human being) [nM] Cap / Ki: functional, NE=no effect; for Ki: read-out: (f) Ki (human being) [nM] Cap
# T1 construct: expressed in transfected cells; host or cells: CHO K1 cells (ECACC), stably transfected
# Protocol: Furthermore, preference may be given to compounds according to the invention of general formula (I) that cause a 50 percent displacement of capsaicin, which is present at a concentration of 100 nM, in a FLIPR assay with CHO K1 cells which were transfected with the human VR1 gene at a concentration of less than 2,000 nM, preferably less than 1,000 nM, particularly preferably less than 300 nM, most particularly preferably less than 100 nM, even more preferably less than 75 nM, additionally preferably less than 50 nM, most preferably less than 10 nM.
# In the process, the Ca^2+ influx is quantified in the FLIPR assay with the aid of a Ca^2+-sensitive dye (type Fluo-4, Molecular Probes Europe BV, Leiden, the Netherlands) in a fluorescent imaging plate reader (FLIPR, Molecular Devices, Sunnyvale, USA), as described hereinafter.
# (§1) The agonistic or antagonistic effect of the substances to be tested on the vanilloid receptor 1 (VR1) can also be determined using the following assay. In this assay, the influx of Ca^2+ through the channel is quantified with the aid of a Ca^2+-sensitive dye (type Fluo-4, Molecular Probes Europe BV, Leiden, the Netherlands) in a fluorescent imaging plate reader (FLIPR, Molecular Devices, Sunnyvale, USA).
# (§2) Chinese hamster ovary cells (CHO K1 cells, European Collection of Cell Cultures (ECACC) United Kingdom) are stably transfected with the VR1 gene. For functional testing, these cells are plated out on poly-D-lysine-coated black 96-well plates having a clear base (BD Biosciences, Heidelberg, Germany) at a density of 25,000 cells/well. The cells are incubated overnight at 37° C. and 5% CO2 in a culture medium (Ham's F12 nutrient mixture, 10% by volume of FCS (foetal calf serum), 18 μg/ml of L-proline). The next day the cells are incubated with Fluo-4 (Fluo-4 2 μM, 0.01% by volume of Pluronic F127, Molecular Probes in HBSS (Hank's buffered saline solution), Gibco Invitrogen GmbH, Karlsruhe, Germany) for 30 minutes at 37° C. Subsequently, the plates are washed three times with HBSS buffer and after further incubation for 15 minutes at RT used for Ca^2+ measurement in a FLIPR assay. The Ca^2+-dependent fluorescence is measured before and after the addition of the substances to be tested (λex wavelength=488 nm, λem=540 nm). Quantification is carried out by measuring the highest fluorescence intensity (FC, fluorescence counts) over time.
# The FLIPR protocol consists of 2 substance additions. First the compounds to be tested (10 μM) are pipetted onto the cells and the Ca^2+ influx is compared with the control (capsaicin 10 μM) (% activation based on the Ca^2+ signal after the addition of 10 μM of capsaicin). After 5 minutes' incubation, 100 nM of capsaicin are applied and the Ca^2+ influx is also determined.
# Desensitising agonists and antagonists led to suppression of the Ca^2+ influx. The % inhibition is calculated compared to the maximum achievable inhibition with 10 μM of capsaicin.
# Starting from the percentage displacement caused by different concentrations of the compounds to be tested of general formula I, IC50 inhibitory concentrations which cause a 50-percent displacement of capsaicin were calculated. K, values for the test substances were obtained by conversion by means of the Cheng-Prusoff equation (Cheng, Prusoff; Biochem. Pharmacol. 22, 3099-3108, 1973).
# [2] = target: T1, vanilloid receptor 1 (VR1/TRPV1 receptor); assay: Functional VR1 assay, heat stimulus 45° C.; format: cell-based, human being; details: human VR1, heat stimulus 45° C.
# From the text: as §1
# as §2, with “Subsequently, the plates are washed three times with HBSS buffer and after further incubation for 15 minutes at RT used for Ca^2+ measurement in a FLIPR assay.” left out
# [3] = target: T2, vanilloid receptor 1 (VR1/TRPV1 receptor) (Mus musculus, UniProt Q704Y3); assay: FLIPR Ca2+ influx assay, capsaicin stimulus, mouse VR1; format: cell-based; details: functional, read-out: (f) Ki (mouse) [nM] Cap
# T2 construct: expressed in transfected cells; host or cells: CHO K1 cells stably transfected (inferred from method II)
# From the text: as §1
# Chinese hamster ovary cells (CHO K1 cells, European Collection of Cell Cultures (ECACC) United Kingdom) are stably transfected with the VR1 gene. For functional testing, these cells are plated out on poly-D-lysine-coated black 96-well plates having a clear base (BD Biosciences, Heidelberg, Germany) at a density of 25,000 cells/well. […] The Ca^2+-dependent fluorescence is measured before and after the addition of the substances to be tested (λex wavelength=488 nm, λem=540 nm). Quantification is carried out by measuring the highest fluorescence intensity (FC, fluorescence counts) over time.
# The FLIPR protocol consists of 2 substance additions. […] After 5 minutes' incubation, 100 nM of capsaicin are applied and the Ca^2+ influx is also determined. […]
# Starting from the percentage displacement caused by different concentrations of the compounds to be tested of general formula I, IC50 inhibitory concentrations which cause a 50-percent displacement of capsaicin were calculated. […]
# T1 sequence (Q8NER1 whole entry): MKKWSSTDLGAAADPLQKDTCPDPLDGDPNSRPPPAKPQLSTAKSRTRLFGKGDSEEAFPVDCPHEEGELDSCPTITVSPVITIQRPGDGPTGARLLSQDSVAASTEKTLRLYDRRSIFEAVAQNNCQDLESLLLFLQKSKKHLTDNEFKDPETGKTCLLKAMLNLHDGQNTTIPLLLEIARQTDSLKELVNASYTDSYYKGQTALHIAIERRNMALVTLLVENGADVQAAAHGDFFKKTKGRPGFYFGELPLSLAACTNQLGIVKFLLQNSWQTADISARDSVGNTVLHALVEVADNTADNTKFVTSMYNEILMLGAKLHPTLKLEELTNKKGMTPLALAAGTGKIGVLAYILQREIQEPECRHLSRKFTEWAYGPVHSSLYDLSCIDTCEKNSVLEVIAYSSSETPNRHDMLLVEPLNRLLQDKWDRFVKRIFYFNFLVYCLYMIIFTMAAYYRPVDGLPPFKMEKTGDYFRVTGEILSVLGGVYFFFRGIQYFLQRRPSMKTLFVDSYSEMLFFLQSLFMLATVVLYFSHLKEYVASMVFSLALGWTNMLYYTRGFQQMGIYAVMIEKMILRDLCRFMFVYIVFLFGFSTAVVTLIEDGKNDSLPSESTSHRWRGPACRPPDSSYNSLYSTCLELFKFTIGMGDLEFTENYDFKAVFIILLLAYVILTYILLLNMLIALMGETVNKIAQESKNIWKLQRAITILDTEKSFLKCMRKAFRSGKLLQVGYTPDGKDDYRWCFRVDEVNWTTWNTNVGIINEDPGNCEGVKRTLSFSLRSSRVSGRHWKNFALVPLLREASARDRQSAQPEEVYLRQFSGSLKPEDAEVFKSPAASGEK
# T2 sequence (Q704Y3 whole entry): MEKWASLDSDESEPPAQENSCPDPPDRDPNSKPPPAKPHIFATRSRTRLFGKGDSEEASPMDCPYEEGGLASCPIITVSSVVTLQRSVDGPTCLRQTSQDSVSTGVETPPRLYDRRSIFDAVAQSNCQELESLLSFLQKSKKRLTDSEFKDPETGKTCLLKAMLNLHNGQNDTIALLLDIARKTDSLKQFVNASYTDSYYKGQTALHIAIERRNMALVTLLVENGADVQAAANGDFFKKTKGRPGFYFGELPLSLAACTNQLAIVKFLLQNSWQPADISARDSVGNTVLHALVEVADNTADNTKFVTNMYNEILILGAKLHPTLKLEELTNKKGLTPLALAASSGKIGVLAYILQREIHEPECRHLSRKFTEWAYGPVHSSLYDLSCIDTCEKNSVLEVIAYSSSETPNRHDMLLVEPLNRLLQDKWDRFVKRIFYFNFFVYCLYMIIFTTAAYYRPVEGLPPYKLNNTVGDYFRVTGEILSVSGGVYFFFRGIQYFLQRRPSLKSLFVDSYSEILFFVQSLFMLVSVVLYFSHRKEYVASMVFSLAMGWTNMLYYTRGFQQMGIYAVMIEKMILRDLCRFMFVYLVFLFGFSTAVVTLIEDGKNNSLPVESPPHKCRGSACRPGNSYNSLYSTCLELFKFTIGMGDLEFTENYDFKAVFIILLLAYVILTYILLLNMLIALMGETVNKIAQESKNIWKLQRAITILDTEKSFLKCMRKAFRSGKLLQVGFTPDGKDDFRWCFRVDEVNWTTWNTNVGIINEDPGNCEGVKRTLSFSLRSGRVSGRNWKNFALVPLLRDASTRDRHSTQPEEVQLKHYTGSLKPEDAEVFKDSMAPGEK
compound,measurement,setting,value
"CC(C)(C)c1ccc2c(c1)CC[C@H]2NC(=O)NCc1cc(C(F)(F)F)nn1-c1cccc(Cl)c1 [Example 2, (R)-1-(5-tert-butyl-2,3-dihydro-1H-inden-1-yl)-3-((1-(3-chlorophenyl)-3-(trifluoromethyl)-1H-pyrazol-5-yl)methyl)urea]",inhibition at 5 µM,[1],33%
"CC(C)(C)c1ccc2c(c1)CC[C@@H]2NC(=O)NCc1cc(C(F)(F)F)nn1-c1cccc(Cl)c1 [Example 3, (S)-1-(5-tert-butyl-2,3-dihydro-1H-inden-1-yl)-3-((1-(3-chlorophenyl)-3-(trifluoromethyl)-1H-pyrazol-5-yl)methyl)urea]",(f) Ki (human being) [nM] Cap,[1],Ne
"CC(C)(C)c1ccc2c(c1)C[C@H](NC(=O)NCc1cc(C(C)(C)C)nn1-c1cccc(Cl)c1)C2 [Example 4, (R)-1-((3-tert-butyl-1-(3-chlorophenyl)-1H-pyrazol-5-yl)methyl)-3-(5-tert-butyl-2,3-dihydro-1H-inden-2-yl)ure]",(f) Ki (human being) [nM] Cap,[1],Ne
"Cn1ncc2c1CCCC2NC(=O)NCc1cc(C(F)(F)F)nn1-c1cccc(Cl)c1 (stereo not drawn) [Example 7, 1-((1-(3-chlorophenyl)-3-(trifluoromethyl)-1H-pyrazol-5-yl)methyl)-3-(1-methyl-4,5,6,7-tetrahydro-1H-indazol-4-yl)urea]",(f) Ki (human being) [nM] Cap,[1],Ne
"CC(C(=O)NCc1cc(C(F)(F)F)nn1-c1cccc(Cl)c1)C1CCCc2ccc(O)cc21 (stereo not drawn) [Example 12, N-((1-(3-chlorophenyl)-3-(trifluoromethyl)-1H-pyrazol-5-yl)methyl)-2-(7-hydroxy-1,2,3,4-tetrahydronaphthalen-1-yl)propanamide]",Ki,[1],49.2 nM
same,inhibition at 2.5 µM,"[2]; @ 2.5 μM, read-out: inhibition (as a percentage), IC50 (human being) 45° C. column",30%
"O=C(NCc1cc(C(F)(F)F)nn1-c1cccc(Cl)c1)NC1CCCc2ccc(O)cc21 (stereo not drawn) [Example 13, 1-((1-(3-chlorophenyl)-3-(trifluoromethyl)-1H-pyrazol-5-yl)methyl)-3-(7-hydroxy-1,2,3,4-tetrahydronaphthalen-1-yl)urea]",Ki,[1],16.1 nM
same,IC50,"[2]; read-out: IC50 (human being) [nM], 45° C.",1860 nM
"CC(C)(C)c1cc(CNC(=O)NC2CCCc3ccc(O)cc32)n(-c2cccc(Cl)c2)n1 (stereo not drawn) [Example 14, 1-((3-tert-butyl-1-(3-chlorophenyl)-1H-pyrazol-5-yl)methyl)-3-(7-hydroxy-1,2,3,4-tetrahydronaphthalen-1-yl)urea]",Ki,[1],7.7 nM
same,Ki,[3],132 nM
"CC(C(=O)NCc1cc(C(F)(F)F)nn1-c1ccc(F)c(Cl)c1)C1CCCc2ccc(O)cc21 (stereo not drawn) [Example 15, N-((1-(3-chloro-4-fluorophenyl)-3-(trifluoromethyl)-1H-pyrazol-5-yl)methyl)-2-(7-hydroxy-1,2,3,4-tetrahydronaphthalen-1-yl)propanamide]",Ki,[1],29.5 nM
"O=C(NCc1cc(C(F)(F)F)nn1-c1cccc(Cl)c1)NC1CCCc2cnccc21 (stereo not drawn) [Example 19, 1-((1-(3-chlorophenyl)-3-(trifluoromethyl)-1H-pyrazol-5-yl)methyl)-3-(5,6,7,8-tetrahydroisoquinolin-5-yl)urea]",inhibition at 5 µM,[1],38%
"CC(C)(C)c1cc(CNC(=O)NC2CCCc3cnccc32)n(-c2cccc(Cl)c2)n1 (stereo not drawn) [Example 20, 1-((3-tert-butyl-1-(3-chlorophenyl)-1H-pyrazol-5-yl)methyl)-3-(5,6,7,8-tetrahydroisoquinolin-5-yl)urea]",Ki,[1],73.6 nM
"N-((1-(3-chlorophenyl)-3-(trifluoromethyl)-1H-pyrazol-5-yl)methyl)-2-(7-hydroxy-1,2,3,4-tetrahydronaphthalen-1-yl)propanamide [Example 10]","inhibition (as a percentage), (f) Ki (human being) Cap column",[1]; @ 1 μM,14% @ 1 μM
same,"inhibition (as a percentage), (f) Ki (human being) Cap column",[1]; @ 5 μM,34% @ 5 μM
